Experimental data from patent US9387246B2, “Treatment methods for rheumatoid arthritis” (priority 2013, dated 2016).
Where two headings read alike, the source gives them in different places.

Legend:
[1] = tested on: Rheumatoid arthritis patients; assay: Change in VECTRA DA Score after treatment, longer duration (Example 3); type: in vivo, human
Description: Sixteen rheumatoid arthritis patients were selected for treatment by treatment methods that were selected using the algorithm disclosed herein. Some patients were the same as the patients discussed under Example 2. Example 3, however, tracks patients' responses to treatment for a longer duration and uses VECTRA DA Score to determine effectiveness of the treatment.
VECTRA® DA test was conducted for each patient to determine serum levels of the all the biomarkers and VECTRA DA Score in each patient before treatment. The collection of patients closely resembles the random patient population available nationwide as shown by a comparison of the distribution of VECTRA DA Scores in FIG. 6, as noted under Example 2.
The patients were treated with the selected treatment methods and the post-treatment biomarker levels and VECTRA DA Score were determined by VECTRA® DA test. The change is VECTRA DA Score was determined to determine the change in disease activity and effectiveness of the selected treatment method.
The treatment method (one method or a combination of methods) was determined to be effective when the post-treatment disease activity was lower than the pre-treatment disease activity in the patient: when VECTRA DA Score was lower than the pre-treatment VECTRA DA Score. Specifically, the treatment method was determined to be effective when the post-treatment disease activity was at least 20% lower than the pre-treatment disease activity, or when the VECTRA DA Score is decreased to a lower disease activity level after the treatment (i.e., from high to moderate, or high to low, or moderate to low).

[2] = tested on: Rheumatoid arthritis patients; assay: Treatment outcome (effectiveness, clinical course) of treatment methods (Example 2); type: in vivo, human; details: Patient 9; ACTEMRA from May 2012 not algorithm-selected; MTX added October 2012, based on ESR and CRP level
Description: (§1) The patients were treated with the selected treatment methods for at least five months and the post-treatment biomarker levels and VECTRA DA Score were determined by VECTRA® DA test along with CRP level and ESR. The change is VECTRA DA Score, CRP level and ESR was determined to determine the change in disease activity and effectiveness of the selected treatment method.

[3] = tested on: Rheumatoid arthritis patients; type: in vivo, human
Source text: A treatment method administered to a patient may be a combination of one or more treatment methods.

[4] = tested on: VCAM-1; details: literature 1990-2012, ACR abstracts 2006-2013; cited from earlier work
[5] = tested on: Rheumatoid arthritis patients; assay: Change in VECTRA DA Score after treatment (Example 2); type: in vivo, human; details: Patient 6; treatment August 2012-June 2013; score February 2013
Source text: VECTRA® DA test is a multi-biomarker disease activity (MBDA) blood test sold by Crescendo Bioscience. The test provides a quantitative assessment of rheumatoid arthritis disease activity in patients by using twelve protein biomarkers—Vascular Cell Adhesion Molecule 1 (VCAM-1), Epidermal Growth Factor (EGF), Vascular Endothelial Growth Factor A (VEGF-A), Interleukin-6 (IL-6), Tumor Necrosis Factor Receptor Type 1 (TNFR1), Matrix Metalloproteinase-1 (MMP-1), Matrix Metalloproteinase-3 (MMP-3), YKL-40, Leptin, Resistin, Serum Amyloid A (SAA), and C-Reactive Protein (CRP). The twelve biomarkers in VECTRA® DA test are relevant to key aspects of the pathophysiology of RA. Li et al., Curr. Med. Res. & Opin. 29(1): 85-92 (2013). The test measures the concentrations of the biomarkers and provides the concentrations and percentile (RA percentile) value for each biomarker. […]
as §1

[6] = tested on: CRP; details: literature 1990-2012, ACR abstracts 2006-2013; cited from earlier work
[7] = tested on: Rheumatoid arthritis patients; assay: VECTRA DA test: serum levels of biomarkers, % elevation over control (InFoRM study); type: in vivo, human
Source text: VECTRA® DA test is a multi-biomarker disease activity (MBDA) blood test sold by Crescendo Bioscience. The test provides a quantitative assessment of rheumatoid arthritis disease activity in patients by using twelve protein biomarkers—Vascular Cell Adhesion Molecule 1 (VCAM-1), Epidermal Growth Factor (EGF), Vascular Endothelial Growth Factor A (VEGF-A), Interleukin-6 (IL-6), Tumor Necrosis Factor Receptor Type 1 (TNFR1), Matrix Metalloproteinase-1 (MMP-1), Matrix Metalloproteinase-3 (MMP-3), YKL-40, Leptin, Resistin, Serum Amyloid A (SAA), and C-Reactive Protein (CRP). The twelve biomarkers in VECTRA® DA test are relevant to key aspects of the pathophysiology of RA. Li et al., Curr. Med. Res. & Opin. 29(1): 85-92 (2013). The test measures the concentrations of the biomarkers and provides the concentrations and percentile (RA percentile) value for each biomarker.
The VECTRA DA MBDA test uses Meso Scale Discovery (MSD, Gaithersburg, Md., USA) sandwich immunoassay electrochemiluminescent technology to measure biomarker levels. Eastman et al., J. of Pharmaceutical and Biomedical Analysis 70: 415-424 (2012). In the immunoassay, capture antibodies are spotted on carbon electrodes in a planar array and detection antibodies are labeled with an electrochemiluminescent ruthenium reporter. Id. Upon electrical stimulation, light is produced from reporter molecules bound to the electrode to determine biomarker concentration.

[8] = tested on: IL-6; details: literature 1990-2012, ACR abstracts 2006-2013; cited from earlier work
[9] = tested on: YKL-40; details: literature 1990-2012, ACR abstracts 2006-2013; cited from earlier work
[10] = tested on: MMP-3; details: literature 1990-2012, ACR abstracts 2006-2013; cited from earlier work
[11] = tested on: TNFR1; parameters: key: Y: biomarkers that are known to be positively affected by a treatment method (i.e., biomarkers that are known to have a favorable response to a treatment method); N: biomarkers that are not known to be positively affected by a treatment method (i.e., biomarkers that are known to have an unfavorable response to a treatment method); biomarkers that are known to be positively affected by a ORENCIA, the brand name of Atabacept; details: literature 1990-2012, ACR abstracts 2006-2013; cited from earlier work
[12] = tested on: MMP-1; details: literature 1990-2012, ACR abstracts 2006-2013; cited from earlier work
[13] = tested on: SAA; details: literature 1990-2012, ACR abstracts 2006-2013; cited from earlier work
[14] = tested on: VEGF-A; details: literature 1990-2012, ACR abstracts 2006-2013; cited from earlier work
[15] = tested on: Leptin; details: literature; Leptin usable as biomarker only in patients with 15% or less body fat; cited from earlier work
[16] = tested on: Resistin; details: literature 1990-2012, ACR abstracts 2006-2013; cited from earlier work

For Tocilizumab [TOCL], the “Arthritis activity class of VECTRA DA Score” value ([1]; Patient 6, February 2013) was “high (a VECTRA DA Score of >44 reflects high disease activity)”, the “Arthritis activity class of VECTRA DA Score” value ([1]; Patient 6, October 2012) was “high (a VECTRA DA Score of >44 reflects high disease activity)” and the “VECTRA DA Score” value ([1]; Patient 6, October 2012, ACTEMRA 4 mg/kg) was 54. For the same substance, the “Treatment Outcome” value [2] was “Not effective”, the “Treatment Outcome” value ([3]; Patient 6) was “Effective, based” and the “Conventional markers of inflammation - ESR and CRP level” value ([3]; Patient 6, while on ACTEMRA) was “normalized”. The Adverse reaction ([3]; in vivo) was “allergic reaction”, the “Toxicity for which the treatment was excluded” value ([3]; in vivo) was “bone marrow” and the “VCAM-1 positively affected by treatment method” value [4] was “N”. For the same substance, the “VECTRA DA Score - Decreased by” value [5] was “Decreased by 24”, the “CRP positively affected by treatment method” value [6] was “Y” and the IL-6 elevated level ([7]; Patient 6, February 2013) was >99%. The MMP-3 elevated level ([7]; Patient 6, February 2013) was 61%, the Resistin elevated level ([7]; Patient 6, February 2013) was 70% and the IL-6 elevated level ([7]; Patient 6, October 2012) was >99%. The MMP-3 elevated level ([7]; Patient 6, October 2012) was 88%, the Resistin elevated level ([7]; Patient 6, October 2012) was 57% and the TNF-R1 elevated level ([7]; Patient 6, October 2012) was 45%. The “IL-6 positively affected by treatment method” value [8] was “Y”, the “YKL-40 positively affected by treatment method” value [9] was “Y” and the “MMP-3 positively affected by treatment method” value [10] was “Y”. For the same substance, the “TNFR1 positively affected by treatment method” value [11] was “N”, the “MMP-1 positively affected by treatment method” value [12] was “Y” and the “SAA positively affected by treatment method” value [13] was “Y”. For the same substance, the “VEGF-A positively affected by treatment method” value [14] was “Y”, the “Leptin positively affected by treatment method” value [15] was “N” and the “Resistin positively affected by treatment method” value [16] was “N”.
